Read-outs that look alike come from different tables or passages of the source.
What was measured:
Type in all cases: cell-based
[1] = test system: l(2)mbn cells; assay: cytotoxicity in Drosophila l(2)mbn cells; details: for Luminescence Raw1: replicate 1; for Luminescence Raw2: replicate 2; for IC50: Drosophila melanogaster, cytotoxicity
Description: (§1) We screened the DDPs on the Drosophila assay system for cytotoxicity, inhibitory activity of innate immune signalling and insecticidal activity. The cytotoxicity of the DDPs was evaluated using two cell lines, embryonic macrophage-derived DL1 cells[58]–[60] and larval blood cell-derived l(2)mbn cells, and their IC50 values are listed in Supplementary Table 23.

[2] = cytotoxicity in Drosophila l(2)mbn cells; details: Drosophila, l(2)mbn cells (larval blood cell-derived)
Description: as §1

[3] = cytotoxicity in Drosophila DL1 cells; details: Drosophila, DL1 cells (embryonic macrophage-derived), DL1 cells
Description: as §1

[4] = test system: DL1 cells; assay: cytotoxicity in Drosophila DL1 cells; details: DL1 cells; for IC50: Drosophila melanogaster, cytotoxicity
Description: as §1

[5] = test system: human immunodeficiency virus-1 (HIV-1); assay: anti-HIV MAGI assay; details: Human immunodeficiency virus 1, MAGI, anti-HIV
Text: We examined the inhibitory activities of DDPs against various species of bacteria (both gram-negative and gram-positive bacteria), fungi and viruses. […] In contrast, preliminary screening of the DDPs for anti-viral agents with hepatitis B virus (HBV), measles virus (MV), Epstein-Barr virus (EBV), herpes simplex virus (HSV) and human immunodeficiency virus-1 (HIV-1) indicated their selective inhibition of HIV.

[6] = average of two replicates, read-out: IC50 Average
[7] = replicate 1, read-out: IC50 (1)
[8] = replicate 2, read-out: IC50 (2)
[9] = replicate 1, relative to DMSO 1%, read-out: % viability, viability 1
[10] = replicate 2, relative to DMSO 1%, read-out: % viability, viability 2

C=C1CCC2C3(C)CC(C=C(C)C)OC3CCC2(C)C1Cc1c(OC)oc(C)c(C)c1=O (stereo not drawn) [Compound 23]
Luminescence Raw1 ([1]; 0.04 µM): 3121216
Luminescence Raw2 ([1]; 0.04 µM): 3467512
Luminescence Raw1 ([1]; 0.2 µM): 3228350
Luminescence Raw2 ([1]; 0.2 µM): 3607479
Luminescence Raw1 ([1]; 1 µM): 1147296
Luminescence Raw2 ([1]; 1 µM): 1863873
Luminescence Raw1 ([1]; 4 µM): 228513
Luminescence Raw2 ([1]; 4 µM): 234642
Luminescence Raw1 ([1]; 10 µM): 179837
Luminescence Raw2 ([1]; 10 µM): 176952
Luminescence Raw1 ([1]; 20 µM): 177313
Luminescence Raw2 ([1]; 20 µM): 164332
IC50 [1, 6]: 1580 nM
IC50 ([1]; average±SEM, read-out: IC50): 1580 ± 350 nM
IC50 [1, 7]: 1230 nM
IC50 [1, 8]: 1920 nM
viability at 0.04 µM [2, 9]: 122%
viability at 0.04 µM [2, 10]: 135%
viability at 0.2 µM [2, 9]: 126%
viability at 0.2 µM [2, 10]: 141%
viability at 1 µM [2, 9]: 44.7%
viability at 1 µM [2, 10]: 72.6%
viability at 4 µM [2, 9]: 8.9%
viability at 4 µM [2, 10]: 9.14%
viability at 10 µM [2, 9]: 7.01%
viability at 10 µM [2, 10]: 6.89%
viability at 20 µM [2, 9]: 6.91%
viability at 20 µM [2, 10]: 6.4%
viability at 0.04 µM [3, 9]: 80.6%
viability at 0.04 µM [3, 10]: 110%
viability at 0.2 µM [3, 9]: 21.3%
viability at 0.2 µM [3, 10]: 27.7%
viability at 1 µM [3, 9]: 7.72%
viability at 1 µM [3, 10]: 9.91%
viability at 4 µM [3, 9]: 8.03%
viability at 4 µM [3, 10]: 7.75%
viability at 10 µM [3, 9]: 4.94%
viability at 10 µM [3, 10]: 5.43%
viability at 20 µM [3, 9]: 8.44%
viability at 20 µM [3, 10]: 8.21%
Luminescence Raw1 ([4]; 0.04 µM, replicate 1): 1660895
Luminescence Raw2 ([4]; 0.04 µM, replicate 2): 2275454
Luminescence Raw1 ([4]; 0.2 µM, replicate 1): 438070
Luminescence Raw2 ([4]; 0.2 µM, replicate 2): 571485
Luminescence Raw1 ([4]; 1 µM, replicate 1): 158989
Luminescence Raw2 ([4]; 1 µM, replicate 2): 204060
Luminescence Raw1 ([4]; 4 µM, replicate 1): 165479
Luminescence Raw2 ([4]; 4 µM, replicate 2): 159710
Luminescence Raw1 ([4]; 10 µM, replicate 1): 101660
Luminescence Raw2 ([4]; 10 µM, replicate 2): 111756
Luminescence Raw1 ([4]; 20 µM, replicate 1): 173772
Luminescence Raw2 ([4]; 20 µM, replicate 2): 169085
IC50 [4, 6]: 130 nM
IC50 ([4]; average±SEM, read-out: IC50): 130 ± 40 nM
IC50 [4, 7]: 94 nM
IC50 [4, 8]: 167 nM
EC50 ([5]; MAGI assay, read-out: EC50): < 200 nM

C=C1CC[C@H]2[C@]3(C)C[C@H](C=C(C)C)O[C@H]3CC[C@]2(C)[C@@H]1Cc1c(OC)oc(C)c(C)c1=O [Compound 24]
Luminescence Raw1 ([1]; 0.04 µM): 3470038
Luminescence Raw2 ([1]; 0.04 µM): 2834452
Luminescence Raw1 ([1]; 0.2 µM): 3507915
Luminescence Raw2 ([1]; 0.2 µM): 3346307
Luminescence Raw1 ([1]; 1 µM): 3332960
Luminescence Raw2 ([1]; 1 µM): 3138530
Luminescence Raw1 ([1]; 4 µM): 267094
Luminescence Raw2 ([1]; 4 µM): 217335
Luminescence Raw1 ([1]; 10 µM): 164693
Luminescence Raw2 ([1]; 10 µM): 160006
Luminescence Raw1 ([1]; 20 µM): 170462
Luminescence Raw2 ([1]; 20 µM): 154958
IC50 [1, 6]: 3040 nM
IC50 ([1]; average±SEM, read-out: IC50): 3040 ± 160 nM
IC50 [1, 7]: 3200 nM
IC50 [1, 8]: 2880 nM
viability at 0.04 µM [2, 9]: 135%
viability at 0.04 µM [2, 10]: 110%
viability at 0.2 µM [2, 9]: 137%
viability at 0.2 µM [2, 10]: 130%
viability at 1 µM [2, 9]: 130%
viability at 1 µM [2, 10]: 122%
viability at 4 µM [2, 9]: 10.4%
viability at 4 µM [2, 10]: 8.47%
viability at 10 µM [2, 9]: 6.42%
viability at 10 µM [2, 10]: 6.23%
viability at 20 µM [2, 9]: 6.64%
viability at 20 µM [2, 10]: 6.04%
viability at 0.04 µM [3, 9]: 122%
viability at 0.04 µM [3, 10]: 113%
viability at 0.2 µM [3, 9]: 41.3%
viability at 0.2 µM [3, 10]: 47.4%
viability at 1 µM [3, 9]: 8.66%
viability at 1 µM [3, 10]: 10.1%
viability at 4 µM [3, 9]: 7.68%
viability at 4 µM [3, 10]: 7.16%
viability at 10 µM [3, 9]: 7.75%
viability at 10 µM [3, 10]: 8.3%
viability at 20 µM [3, 9]: 7.46%
viability at 20 µM [3, 10]: 8.17%
Luminescence Raw1 ([4]; 0.04 µM, replicate 1): 2516748
Luminescence Raw2 ([4]; 0.04 µM, replicate 2): 2332079
Luminescence Raw1 ([4]; 0.2 µM, replicate 1): 850222
Luminescence Raw2 ([4]; 0.2 µM, replicate 2): 975712
Luminescence Raw1 ([4]; 1 µM, replicate 1): 178460
Luminescence Raw2 ([4]; 1 µM, replicate 2): 208026
Luminescence Raw1 ([4]; 4 µM, replicate 1): 158268
Luminescence Raw2 ([4]; 4 µM, replicate 2): 147451
Luminescence Raw1 ([4]; 10 µM, replicate 1): 159710
Luminescence Raw2 ([4]; 10 µM, replicate 2): 170888
Luminescence Raw1 ([4]; 20 µM, replicate 1): 153581
Luminescence Raw2 ([4]; 20 µM, replicate 2): 168364
IC50 [4, 6]: 242 nM
IC50 ([4]; average±SEM, read-out: IC50): 240 ± 10 nM
IC50 [4, 7]: 237 nM
IC50 [4, 8]: 248 nM
EC50 ([5]; MAGI assay, read-out: EC50): < 200 nM

C=C1CC[C@H]2[C@]3(C)C[C@H](C=C(C)C)O[C@H]3CC[C@]2(C)[C@@H]1Cc1c(O)c(C)c(C)oc1=O [Compound 6, subglutinol B]
Luminescence Raw1 ([1]; 0.04 µM): 3229071
Luminescence Raw2 ([1]; 0.04 µM): 3538217
Luminescence Raw1 ([1]; 0.2 µM): 3288590
Luminescence Raw2 ([1]; 0.2 µM): 2991720
Luminescence Raw1 ([1]; 1 µM): 424303
Luminescence Raw2 ([1]; 1 µM): 530313
Luminescence Raw1 ([1]; 4 µM): 220220
Luminescence Raw2 ([1]; 4 µM): 206879
Luminescence Raw1 ([1]; 10 µM): 225268
Luminescence Raw2 ([1]; 10 µM): 189211
Luminescence Raw1 ([1]; 20 µM): 213009
Luminescence Raw2 ([1]; 20 µM): 187048
IC50 [1, 6]: 850 nM
IC50 ([1]; average±SEM, read-out: IC50): 850 ± 10 nM
IC50 [1, 7]: 860 nM
IC50 [1, 8]: 838 nM
viability at 0.04 µM [2, 9]: 126%
viability at 0.04 µM [2, 10]: 138%
viability at 0.2 µM [2, 9]: 128%
viability at 0.2 µM [2, 10]: 117%
viability at 1 µM [2, 9]: 16.5%
viability at 1 µM [2, 10]: 20.7%
viability at 4 µM [2, 9]: 8.58%
viability at 4 µM [2, 10]: 8.06%
viability at 10 µM [2, 9]: 8.78%
viability at 10 µM [2, 10]: 7.37%
viability at 20 µM [2, 9]: 8.3%
viability at 20 µM [2, 10]: 7.29%
viability at 0.04 µM [3, 9]: 118%
viability at 0.04 µM [3, 10]: 124%
viability at 0.2 µM [3, 9]: 23.9%
viability at 0.2 µM [3, 10]: 55.3%
viability at 1 µM [3, 9]: 7.67%
viability at 1 µM [3, 10]: 8.28%
viability at 4 µM [3, 9]: 7.86%
viability at 4 µM [3, 10]: 7.05%
viability at 10 µM [3, 9]: 7.18%
viability at 10 µM [3, 10]: 7.39%
viability at 20 µM [3, 9]: 7.25%
viability at 20 µM [3, 10]: 6.62%
Luminescence Raw1 ([4]; 0.04 µM, replicate 1): 2426216
Luminescence Raw2 ([4]; 0.04 µM, replicate 2): 2551013
Luminescence Raw1 ([4]; 0.2 µM, replicate 1): 492518
Luminescence Raw2 ([4]; 0.2 µM, replicate 2): 1138346
Luminescence Raw1 ([4]; 1 µM, replicate 1): 157908
Luminescence Raw2 ([4]; 1 µM, replicate 2): 170527
Luminescence Raw1 ([4]; 4 µM, replicate 1): 161874
Luminescence Raw2 ([4]; 4 µM, replicate 2): 145288
Luminescence Raw1 ([4]; 10 µM, replicate 1): 147812
Luminescence Raw2 ([4]; 10 µM, replicate 2): 152139
Luminescence Raw1 ([4]; 20 µM, replicate 1): 149254
Luminescence Raw2 ([4]; 20 µM, replicate 2): 136274
IC50 [4, 6]: 234 nM
IC50 ([4]; average±SEM, read-out: IC50): 230 ± 70 nM
IC50 [4, 7]: 166 nM
IC50 [4, 8]: 303 nM
EC50 ([5]; average of numeric determinations, read-out: Avg. EC50): 757 nM
